Experimental data as given in patent US6455540B1, “Methods of use of quinolone compounds against anaerobic pathogenic bacteria” (priority 1999, dated 2002).
Values after ≈ are worked out from the molar mass of the structure shown.

What was measured:
Experiment in all cases: Agar dilution MIC
[1] = tested on: Clostridium dfficile; type: cell-based, Clostridium difficile; settings: Clostridium
[2] = tested on: Peptostreptococcus asaccharolyticus; type: cell-based; settings: Peptoniphilus asaccharolyticus, 11 isolates
[3] = tested on: Bilophila wadsworthia; type: cell-based; settings: 16 isolates, agar supplemented with pyruvate
[4] = tested on: Prevotella buccae-oris group; type: cell-based; settings: 22 isolates
[5] = tested on: Porphyromonas gingivalis; type: cell-based; settings: 13 isolates
[6] = tested on: Fusobacterium spp group 1; type: cell-based; settings: Fusobacterium, 19 isolates
[7] = tested on: Prevotella bivia; type: cell-based; settings: Prevotella bivia, 21 isolates
[8] = tested on: Prevotella intermedia; type: cell-based; settings: 11 isolates
[9] = tested on: Clostridium ramosum; type: cell-based; settings: Thomasclavelia ramosa, 10 isolates
[10] = tested on: Porphyromonas canoris; type: cell-based; settings: 10 isolates
[11] = tested on: Prevotella denticola/loeschii group; type: cell-based; settings: Prevotella denticola, read-out: Minimal Inhibitory Concentration 50% (MIC50); 6 isolates
[12] = tested on: Porphyromonas spp.; type: cell-based, Porphyromonas cangingivalis, cansulci, circumdentaria, levii; settings: Porphyromonas, 11 isolates
[13] = tested on: Fusobacterium varium; type: cell-based; settings: Fusobacterium varium, 17 isolates
[14] = tested on: Porphyromonas macaccae; type: cell-based; settings: 13 isolates
[15] = tested on: Fusobacterium spp. group 2; type: cell-based, Fusobacterium mortiferum, necrogenes, ulcerans; settings: Fusobacterium, 12 isolates
[16] = tested on: Bacteroides ureolyticus; type: cell-based; settings: Campylobacter ureolyticus, 17 isolates
[17] = tested on: Clostridium clostridioforme; type: cell-based; settings: Clostridium, 11 isolates
[18] = tested on: Peptostreptococcus magnus; type: cell-based; settings: Finegoldia magna, 13 isolates
[19] = tested on: Bacteroides gracilis; type: cell-based, Bacteroides gracilis (Campylobacter gracilis); settings: Campylobacter gracilis, 11 isolates
[20] = tested on: Actinomyces israelii; type: cell-based; settings: 6 isolates
[21] = tested on: Peptostreptococcus micros; type: cell-based; settings: 12 isolates
[22] = tested on: Prevotella melaninogenica; type: cell-based; settings: 12 isolates
[23] = tested on: Actinomyces odontolyticus; type: cell-based; settings: Schaalia odontolytica, 10 isolates
[24] = tested on: Porphyromonas asaccharolyticus; type: cell-based, Porphyromonas asaccharolytica; settings: 11 isolates
[25] = tested on: Anaerobiospirillum thomasii; type: cell-based; settings: 13 isolates
[26] = tested on: Veillonella spp.; type: cell-based; settings: Veillonella, 24 isolates
[27] = tested on: Peptostreptococcus prevotii; type: cell-based; settings: Anaerococcus prevotii, read-out: Minimal Inhibitory Concentration 50% (MIC50); 9 isolates
[28] = tested on: Anaerobiospirillum succiniciproducens; type: cell-based; settings: 3 isolates
[29] = tested on: Clostridium inocuum; type: cell-based, Clostridium innocuum; settings: Clostridium, 11 isolates
[30] = tested on: Fusobacterium russii; type: cell-based; settings: Fusobacterium russii
[31] = tested on: Prevotella heparinolytica; type: cell-based; settings: 16 isolates
[32] = tested on: Bacteroides tectum; type: cell-based; settings: 22 isolates
[33] = read-out: Minimal Inhibitory Concentration 50% (MIC50)
[34] = read-out: Minimal Inhibitory Concentration 90% (MIC90)
[35] = Porphyromonas, read-out: Minimal Inhibitory Concentration 50% (MIC50)
[36] = Porphyromonas, read-out: Minimal Inhibitory Concentration 90% (MIC90)

CC[C@H]1OC(=O)[C@H](C)[C@@H](O[C@H]2C[C@@](C)(OC)[C@@H](O)[C@H](C)O2)[C@H](C)[C@@H](O[C@@H]2O[C@H](C)C[C@H](N(C)C)[C@H]2O)[C@](C)(O)C[C@@H](C)C(=O)[C@H](C)[C@@H](O)[C@]1(C)O [Erythromycin]
MIC50 [1, 33]: 0.5 µg/mL (≈ 0.681 µM)
MIC90 ([1]; read-out: Minimal Inhibitory Concentration 90% (MIC90), 14 isolates): > 32 µg/mL
MIC50 [2, 33]: 4 µg/mL (≈ 5.45 µM)
MIC90 [2, 34]: > 32 µg/mL
Minimal Inhibitory Concentration Range [3]: 4 to 32 µg/mL
MIC90 ([3]; Bilophila wadsworthia, read-out: Minimal Inhibitory Concentration 90% (MIC90)): 32 µg/mL (≈ 43.6 µM)
MIC50 ([3]; Bilophila wadsworthia, read-out: Minimal Inhibitory Concentration 50% (MIC50)): 16 µg/mL (≈ 21.8 µM)
Minimal Inhibitory Concentration Range [4]: 0.5 to 8 µg/mL
MIC90 ([4]; Prevotella, read-out: Minimal Inhibitory Concentration 90% (MIC90)): 2 µg/mL (≈ 2.73 µM)
MIC50 ([4]; Prevotella, read-out: Minimal Inhibitory Concentration 50% (MIC50)): 1 µg/mL (≈ 1.36 µM)
Minimal Inhibitory Concentration Range [5]: 0.06 to 0.5 µg/mL
MIC50 ([5]; Porphyromonas gingivalis, read-out: Minimal Inhibitory Concentration 50% (MIC50)): 0.125 µg/mL (≈ 0.17 µM)
MIC90 ([5]; Porphyromonas gingivalis, read-out: Minimal Inhibitory Concentration 90% (MIC90)): 0.5 µg/mL (≈ 0.681 µM)
MIC50 ([6]; GROUP1, read-out: Minimal Inhibitory Concentration 50% (MIC50)): 8 µg/mL (≈ 10.9 µM)
MIC90 ([6]; GROUP1, read-out: Minimal Inhibitory Concentration 90% (MIC90)): 32 µg/mL (≈ 43.6 µM)
MIC90 [7, 34]: 2 µg/mL (≈ 2.73 µM)
MIC50 [7, 33]: 1 µg/mL (≈ 1.36 µM)
Minimal Inhibitory Concentration Range [8]: 0.03 to 0.5 µg/mL
MIC90 ([8]; Prevotella intermedia, read-out: Minimal Inhibitory Concentration 90% (MIC90)): 0.25 µg/mL (≈ 0.341 µM)
MIC50 ([8]; Prevotella intermedia, read-out: Minimal Inhibitory Concentration 50% (MIC50)): 0.06 µg/mL (≈ 0.0818 µM)
MIC50 [9, 33]: 1 µg/mL (≈ 1.36 µM)
MIC90 [9, 34]: > 32 µg/mL
Minimal Inhibitory Concentration Range [10]: 0.03 to 0.25 µg/mL
MIC50 ([10]; Porphyromonas canoris, read-out: Minimal Inhibitory Concentration 50% (MIC50)): 0.06 µg/mL (≈ 0.0818 µM)
MIC90 ([10]; Porphyromonas canoris, read-out: Minimal Inhibitory Concentration 90% (MIC90)): 0.125 µg/mL (≈ 0.17 µM)
MIC50 [11]: 0.25 µg/mL (≈ 0.341 µM)
MIC50 [12, 33]: 0.06 µg/mL (≈ 0.0818 µM)
MIC90 [12, 34]: 0.06 µg/mL (≈ 0.0818 µM)
MIC50 [13, 33]: > 32 µg/mL
MIC90 [13, 34]: > 32 µg/mL
Minimal Inhibitory Concentration Range [14]: 0.06 to 0.25 µg/mL
MIC50 [14, 35]: 0.125 µg/mL (≈ 0.17 µM)
MIC90 [14, 36]: 0.25 µg/mL (≈ 0.341 µM)
MIC50 [15, 33]: > 32 µg/mL
MIC90 [15, 34]: > 32 µg/mL
MIC90 [16, 34]: 2 µg/mL (≈ 2.73 µM)
MIC50 [16, 33]: 0.025 µg/mL (≈ 0.0341 µM)
MIC90 [17, 34]: > 32 µg/mL
MIC50 [17, 33]: 16 µg/mL (≈ 21.8 µM)
MIC50 [18, 33]: 4 µg/mL (≈ 5.45 µM)
MIC90 [18, 34]: > 32 µg/mL
MIC90 [19, 34]: 2 µg/mL (≈ 2.73 µM)
MIC50 [19, 33]: 1 µg/mL (≈ 1.36 µM)
Minimal Inhibitory Concentration Range [20]: 0.03 µg/mL
MIC50 ([20]; Actinomyces israelii, read-out: Minimal Inhibitory Concentration 50% (MIC50)): 0.03 µg/mL (≈ 0.0409 µM)
Minimal Inhibitory Concentration Range [21]: 0.5 to 1 µg/mL
MIC50 ([21]; Parvimonas micra, read-out: Minimal Inhibitory Concentration 50% (MIC50)): 0.5 µg/mL (≈ 0.681 µM)
MIC90 ([21]; Parvimonas micra, read-out: Minimal Inhibitory Concentration 90% (MIC90)): 0.5 µg/mL (≈ 0.681 µM)
Minimal Inhibitory Concentration Range [22]: 0.06 to 32 µg/mL
MIC90 ([22]; Prevotella melaninogenica, read-out: Minimal Inhibitory Concentration 90% (MIC90)): 8 µg/mL (≈ 10.9 µM)
MIC50 ([22]; Prevotella melaninogenica, read-out: Minimal Inhibitory Concentration 50% (MIC50)): 1 µg/mL (≈ 1.36 µM)
MIC90 [23, 34]: 0.03 µg/mL (≈ 0.0409 µM)
MIC50 [23, 33]: ≤ 0.015 µg/mL
Minimal Inhibitory Concentration Range [24]: 0.03 to 32 µg/mL
MIC50 [24, 35]: 0.03 µg/mL (≈ 0.0409 µM)
MIC90 [24, 36]: 32 µg/mL (≈ 43.6 µM)
Minimal Inhibitory Concentration Range [25]: 1 to 16 µg/mL
MIC50 ([25]; Anaerobiospirillum thomasii, read-out: Minimal Inhibitory Concentration 50% (MIC50)): 4 µg/mL (≈ 5.45 µM)
MIC90 ([25]; Anaerobiospirillum thomasii, read-out: Minimal Inhibitory Concentration 90% (MIC90)): 8 µg/mL (≈ 10.9 µM)
MIC90 [26, 34]: > 32 µg/mL
MIC50 [26, 33]: 16 µg/mL (≈ 21.8 µM)
MIC50 [27]: > 32 µg/mL
Minimal Inhibitory Concentration Range [28]: 8 to 16 µg/mL
MIC50 ([28]; Anaerobiospirillum succiniciproducens, read-out: Minimal Inhibitory Concentration 50% (MIC50)): 16 µg/mL (≈ 21.8 µM)
MIC90 [29, 34]: > 32 µg/mL
MIC50 [29, 33]: > 32 µg/mL
MIC50 [30, 33]: 4 µg/mL (≈ 5.45 µM)
MIC90 [30, 34]: > 32 µg/mL
Minimal Inhibitory Concentration Range [31]: 0.25 to 0.5 µg/mL
MIC90 ([31]; Prevotella heparinolytica, read-out: Minimal Inhibitory Concentration 90% (MIC90)): 0.25 µg/mL (≈ 0.341 µM)
MIC50 ([31]; Prevotella heparinolytica, read-out: Minimal Inhibitory Concentration 50% (MIC50)): 0.25 µg/mL (≈ 0.341 µM)
Minimal Inhibitory Concentration Range [32]: 0.25 to 1 µg/mL
MIC90 ([32]; Bacteroides pyogenes, read-out: Minimal Inhibitory Concentration 90% (MIC90)): 0.5 µg/mL (≈ 0.681 µM)
MIC50 ([32]; Bacteroides pyogenes, read-out: Minimal Inhibitory Concentration 50% (MIC50)): 0.5 µg/mL (≈ 0.681 µM)
